This note sets out measurements from patent US20240285808A1, “MOLECULAR PROBES FOR IN VIVO DETECTION OF ALDEHYDES” (The General Hospital Corporation, priority 2021, published 2024).

Data set [1] is described as follows: Reaction rates with 2-formylpyridine measured by HPLC-ICP-MS (Method A). Conditions: Method a: 2-formylpyridine 1000 μM, probe 25 μM, pH 7.40 PBS. In kind it is physicochemical. The method, then:
Quantitative Measurement of Reaction Rates with Aldehydes: Method A: Reaction Rates of Compounds with 2-Formylpyridine Measured by HPLC-ICP-MS
Reactivity of aldehyde-binding probes were assessed in pH 7.40 phosphate-buffered saline under pseudo-first order conditions with 2-formylpyridine concentration of 1000 μM and probes at 25 μM. Concentrations of unreacted starting material and condensation products were determined at 12 min time intervals based on their relative integrations. The values were fit to a standard first order rate constant linear equation and the rate constant was extracted from the slope.

Data set [2] relates to fibrotic lung tissue of bleomycin-injured mice. Nature of the data set: Biodistribution study for selectivity of allysine-reactive Gd probes (Gd:Eu ratio by ICP-MS). The following applies: 30 minutes after injection, 100 nmol/g, Eu-DOTA co-injected, n = 5. In kind it is in vivo, mouse. As to the method: C57Bl/6 adult male mice at 8 weeks of age (Jackson Laboratories, Barr Harbor, ME) received a single intratracheal dose of bleomycin, 1 units/kg body weight (50 μL total volume) (Fresenius Kabi, Lake Zurich, Il) as previously described in Desogere, P., et al. Optimization of a Collagen-Targeted PET Probe for Molecular Imaging of Pulmonary Fibrosis. J Nuc Med 58, 1991-1996 (2017).
Imaging and Biodistribution Study for Selectivity of Allysine-Reactive Probes In Vivo:
Bleomycin-injured mice at 14 days after injury were sedated and then injected with Compound 19, Compound 20, Gd-CHyd (Akam, E. A., et al. Improving the reactivity of hydrazine-bearing MRI probes for in vivo imaging of lung fibrogenesis. Chemical Science 11, 224-231 (2020)) formulated to contain an equal concentration of Eu-DOTA as a non-binding control probe. […] Each sample was analyzed by ICP-MS for gadolinium and europium content, and the lungs were also assessed for hydroxyproline content. […] All animals were dosed via tail vein injection at 100 nmol/g body weight from 30 mM solutions of gadolinium probes with 30 mM Eu-DOTA as determined by ICP-MS. […] Animals were euthanized 90 min post injection and their organs and tissues were harvested and counted using a gamma counter. […] The animals were euthanized 90 min post injection and their organs and tissues were counted using a gamma counter. […]

Data set [3] can be described thus: Reaction rates with butyraldehyde measured by HPLC-ICP-MS (Method B). Conditions: Method b: butyraldehyde 100 μM, probe 25 μM, pH 7.40. In kind it is physicochemical. The method, then: Method B: Reaction Rates of Compounds with Butyraldehyde Measured by HPLC-ICP-MS
The reactions were conducted in pH 7.40 phosphate-buffered with butyraldehyde concentration of 100 μM and hydrazine probes at 25 μM. Concentrations of unreacted starting material and condensation products were determined at 10 min time intervals over 2 hours based on their relative integrations. The values were fit to a standard first order rate constant linear equation and the rate constant was extracted from the slope.
Reaction with Butyraldehyde Monitored by HPLC-ICP-MS
Reactions were conducted in pH 7.4 phosphate-buffered saline with butyraldehyde concentration of 100 μM and hydrazine probes at 25 μM. Concentrations of unreacted starting material and condensation products were determined based on their relative integrations at 12 min time intervals over 2 hours.

Data set [4] is described as follows: Relaxivity measurements in PBS. In kind it is physicochemical. Conditions: 1.4 T, 37° C. As to the method: (§1) BSA-ALD (10 mg/mL) or BSA (10 mg/mL) were treated for 24 hours at 37° C. with the corresponding Gd or Mn complex at a range of concentrations (0.01-0.2 mM), with a total volume of 300 μL maintained for all samples. After 24 hours, an aliquot of the solution (50 μL) was used for longitudinal (T1) relaxation measurements, recorded using a Bruker mq60 Minispec at 1.41 T and 37° C. Longitudinal (T1) relaxation times were measured via an inversion recovery experiment using 10 inversions of duration ranging between 0.05×T1 and 10×T1. Solutions (concentration range: 0.1 mM-1.0 mM) in PBS were run in parallel. To measure the relaxivity of BSA-bound species, sodium cyanoborohydride (10 mg) was added to the solution to irreversibly bind the probe to the protein. After a further 2h incubation at 37° C., protein-bound and protein-free solutions were separated by ultrafiltration. Then 200 μL PBS was added to the residue to dissolve the protein. Longitudinal (T1) relaxation times for the bounded species were measured using a Bruker mq60 Minispec at 1.41 T and 37° C. After the measurement, concentration of corresponding metal ion (Gd/Mn) in the residue and filter were both determined using an Agilent 8800 ICP-MS system. Relaxivity (r1) was determined from the slope of a plot of 1/T1 vs metal concentration for 5 concentrations.

Data set [5] concerns the target bovine serum albumin (BSA) (Bos taurus, UniProt P02769). Nature of the data set: Relaxivity measurements with BSA. Conditions: 1.4 T, 37° C., BSA 10 mg/mL. In kind it is binding. The method, then:
as §1

For data set [6], the target named is T1, BSA-ALD (oxidized bovine serum albumin containing allysine aldehyde groups) (Bos taurus, UniProt P02769).
T1 construct: made in house; host or cells: no expression host: BSA oxidised chemically with sodium ascorbate, ferric chloride and H2O2, then desalted on PD-10
Nature of the data set: Relaxivity measurements with BSA-Ald. In kind it is binding. The method, then:
Preparation of Allysine Containing Bovine Serum Albumin, BSA-ALD:
To a solution of bovine serum albumin (BSA) (100 mg) dissolved in phosphate buffered saline (4 mL, pH 7.4, 0.25 mM), sodium ascorbate (20 mg), ferric chloride (120 μL, 10 mM) and 20 μL H2O2 (30% w) were added. The reaction was stirred at 37° C. for 24 hours, and sodium ascorbate (20 mg) was added repeatedly every 8 hours. After the reaction, protein was purified using PD-10 Sephadex G25 desalting columns (GE Healthcare), eluted with PBS. Protein concentration was assessed using the ‘BCA Protein Assay Kit’ (Thermo Scientific). Protein carbonyl concentration was determined by ‘Protein Carbonyl Content Assay Kit’ (Sigmal-Aldrich).
Alternatively, preparation of BSA^Ald and binding of Gd^3+ probe to protein was carried out according to modified procedures. To a solution of bovine serum albumin (BSA) (100 mg) dissolved in phosphate buffered saline (4 mL, pH 7.4, 0.25 mM) was added sodium ascorbate (20 mg), ferric chloride (120 μL, 10 mM) and 20 μL H2O2 (30% w). The reaction was stirred at 37° C. for 24 h, and sodium ascorbate (20 mg) was added repeatedly every 8 h. After 24 h, the protein was purified using PD-10 Sephadex G25 desalting columns (GE Healthcare), eluted with PBS. Protein concentration was assessed using the ‘Micro BCA Protein Assay Kit’ (Thermo Scientific, 23235). Protein carbonyl concentration was determined by ‘Protein Carbonyl Content Assay Kit’ (Sigma-Aldrich, MAK094-1KT). […] The protein solutions were kept at a concentration of 20 mg/mL for further use.
as §1

Data set [7] relates to liver of CCl4 injured mice. In kind it is in vivo, mouse. Conditions: CCl4 injured mice. The method, then: CCl4 Liver Fibrosis Model:
Male C57BL/6 mice (Charles River Laboratories, Wilmington, MA) were treated with carbon tetrachloride for 12 weeks (0.1 ml of 20% CCl4 in olive oil the first week, 30% the second week, and 40% from weeks 3-12) by oral gavage, 2-3 times per week. Control mice were fed vehicle (olive oil) only.
A total of 53 C57BL/6 mice were included to study CCl4 induced hepatic fibrosis: • A. CCl4 for 12 weeks (n=20). Each mouse was imaged with probe 1 and then imaged again 24 hours later with probe 2. Probe 1 and Probe 2 were randomly chosen from GdDOTA, GdCHyd, Mn-12, Gd-9 and Gd-10. • B. Vehicle treated control (n=20). Each mouse was imaged with probe 1 and then imaged again 24 hours later with probe 2. Probe 1 and Probe 2 were randomly chosen from GdDOTA, Mn-12, GdCHyd, Gd-9, Gd-10. • C. CCl4 for 12 weeks (n=3, another 3 pair-wise comparison have been done in group A). Each mouse was imaged with probe 1 and then imaged again 24 hours later with probe 2. […] Each mouse was imaged with probe 1 and then imaged again 24 hours later with probe 2. Probe 1 and Probe 2 were randomly choosing from Gd-9 and Gd-10. • E. CCl4 for 12 weeks (n=3). Each mouse was imaged with Gd-9. After 24 hours, the same mouse was first injected with 1000 μmol/kg of Yb-9 and then injected with 100 μmol/kg of Gd-9 15 min after the Yb-9 injection.
Animals were anesthetized with isoflurane (1-2%) and placed in a specially designed cradle with body temperature maintained at 37° C. The inhaled isoflurane level was adjusted to maintain a respiration rate of 60±5 breaths per minute. The tail vein was cannulated for intravenous (i.v.) delivery of the contrast agent while the animal was positioned in the scanner. Imaging was performed at 4.7 T using a small bore animal scanner with a custom-built volume coil. Mice were imaged with a dose of 100 μmol/kg from 30 mM stock solution of Gd or Mn complex.
For mice liver imaging, a series of baseline images (3D T1 weighted fast low angle shot magnetic resonance imaging (FLASH)) were first acquired (repetition time/echo time=15/2 ms; flip angle, 30°; field of view, 48×30 mm^2; matrix size, […]; slice thickness, 0.25 mm; acquisition time, 3 minutes 20 seconds), then a bolus of Gd or Mn complex was administered i.v. and imaging performed for a period of 45 min p.i. with the repetition acquisition of 3D T1 weighted FLASH sequences. Following the imaging session, animals were sacrificed (75 min p.i.) and liver tissue was subjected to histopathologic analysis.
For liver imaging analysis, a region of interest (ROI) was manually traced encompassing the liver parenchyma while avoiding major blood vessels. A second ROI was placed on the dorsal muscle visible in the same image slice to quantify the signal intensity in the muscle for comparison. Seven ROIs were placed in the field of view without any tissue (air) to measure the variation in background signal. More than 20 axial slices per mouse across the entire liver were analyzed in this fashion. […] Contrast to noise ratio (CNR) was calculated by measuring the difference in signal intensity (SI) between liver and muscle and normalizing to the standard deviation of the signal in the air, eq 21. ΔCNR was calculated by subtracting CNR measured prior to probe injection (CNRPre) from CNR measured after injection (CNRPost), eq 22. […]

Data set [8] can be described thus: H2^17O transverse relaxivity vs temperature (inner-sphere water number q). In kind it is physicochemical. Conditions: temperature dependence of H2^17O transverse relaxivity. The source says: FIG. 24. […] The peak relaxivity is indicative of the number of inner-sphere water molecules (q).
(§2) To meet these requirements, the probes Mn-12, Mn-13 and Mn-14 were designed based on the stable Mn-1,4-DO2A chelate. […] This combination of stability, turn-on relaxivity, and low uptake in healthy liver indicate that Mn-12 is quite promising as a novel probe for liver fibrogenesis detection.

The nature of data set [9]: Transmetalation experiment with Zn^2+ monitored by relaxivity. In kind it is physicochemical. The following applies: 1 mM complex, 25 mM Zn^2+, 50 mM pH 6.0 MES buffer, 37° C., 1.4 T.
Data set [10] is described as follows: Biodistribution of manganese in healthy mice 60 minutes post-injection. In kind it is in vivo, mouse. Conditions: 0.1 mmol/kg i.v.
Source text: as §2

Several values for one entry are separate records, joined by “and”; a condition that tells them apart may be missing. Identical values can stand only once. Entries after “also recorded” stand apart in the source; their conditions may differ.

T1 sequence (P02769 25-607): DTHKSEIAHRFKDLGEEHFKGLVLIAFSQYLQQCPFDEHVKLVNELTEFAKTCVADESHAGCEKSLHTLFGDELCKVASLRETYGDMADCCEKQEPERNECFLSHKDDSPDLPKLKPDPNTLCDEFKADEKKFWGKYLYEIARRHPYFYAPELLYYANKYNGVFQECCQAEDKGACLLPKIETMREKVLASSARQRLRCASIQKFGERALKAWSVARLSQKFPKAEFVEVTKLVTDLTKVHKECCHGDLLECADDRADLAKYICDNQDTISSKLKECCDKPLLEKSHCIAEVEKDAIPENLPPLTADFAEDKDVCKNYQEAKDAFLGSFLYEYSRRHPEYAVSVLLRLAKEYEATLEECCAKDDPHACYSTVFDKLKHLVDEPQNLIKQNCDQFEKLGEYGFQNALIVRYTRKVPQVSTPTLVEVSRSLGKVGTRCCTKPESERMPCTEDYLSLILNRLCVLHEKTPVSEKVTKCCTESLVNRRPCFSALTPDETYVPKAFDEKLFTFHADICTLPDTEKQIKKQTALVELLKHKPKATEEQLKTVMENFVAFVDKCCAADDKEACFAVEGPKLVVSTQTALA
bovine serum albumin (BSA), sequence (P02769 25-607): as above

Consider `NOCC(=O)NCCN(CCNC(=O)CCC1C(=O)[O][Gd]23[O]C(=O)CN4CCN(CCN1CCN(CC4)CC(=O)[O]2)CC(=O)[O]3)CCNC(=O)CON` (centres unmarked) [Compound 19], for which the “k (second order rate constant)” value in data set [1] worked out at 0.55 M⁻¹ s⁻¹. Moreover, in data set [2], the “Gd:Eu ratio, Left lung” value turned out to be 1.4 ± 0.1 and the “Gd:Eu ratio, Right lung” value amounted to 1.3 ± 0.2.
Regarding `NN1CCN(C(=O)CCCN2CCN(CCCC(=O)N3CCN(N)CC3)CCN(CC(=O)[O-])CCN(CC(=O)[O-])CC2)CC1.[Mn+2]` [Mn-12], the “k (second order rate constant)” value in data set [3] was 4.5 M⁻¹ s⁻¹. Also, in [4], the “r1, PBS” value was 1.6 mM⁻¹ s⁻¹. In addition, the “r1, +BSA” value in data set [5] worked out at 2.2 mM⁻¹ s⁻¹. Further, the “turn-on in relaxivity upon binding to allysine (BSA-Ald bound vs unbound)” value in data set [6] was 4 fold and ~5 fold. Moreover, in data set [6] (1.4 T, 37° C., BSA-Ald 10 mg/mL), the “r1, +BSA-Ald” value is 4.5 mM⁻¹ s⁻¹. Moreover, in data set [6] (1.4 T, 37° C., protein-bound species after NaBH3CN and ultrafiltration), the “r1, Bound to BSA-Ald” value was 7.7 mM⁻¹ s⁻¹. For the same molecule, the “liver enhancement” value in data set [7] (45 min p.i.) is recorded as “strong signal enhancement”. Moreover, the “ΔCNR (liver to muscle)” value in [7] (45 min post injection, 100 μmol/kg i.v., group mean) was 1.5 ± 0.8. Moreover, the “inner-sphere number of water molecule (q)” value in data set [8] worked out at 0.44. The “kinetic inertness to Mn^2+ release” value in data set [9] is reported as “more inert to Mn^2+ release than Mn-1,4-DO2A; also recorded: increased kinetic stability of Mn-12 compared to unmodified Mn-1,4-DO2A”. In addition, in [10], the “Mn liver levels in healthy mice” value is reported as “little accumulation in the healthy liver; also recorded: baseline Mn levels in liver”.
